In brackets after ≈: the same amount, converted by molar mass. Several values for one entry are separate records, joined by “and”; a condition that tells them apart may be missing. Equal values may be shown once. Read-outs that look alike come from different tables or passages of the source. Where no end group is shown, it is not given here.
What was measured:
[1] = system: mixed bacterial infection (PA, SA and ST); assay: Broth microdilution, mixed bacterial infection; format: cell-based
Method: Chronic wounds mostly present mixed infections where numerous pathogens colonize together.
(§1) Examination of the potency of modified short peptides against PA and SA strains was performed by using the broth microdilution protocol from the Clinical and Laboratory Standards Institute (CLSI) guidelines (CLSI 2012) as described. Briefly, five freshly plated bacteria colonies were grown in cation adjusted MH2 broth (BD Biosciences) in a shaker incubator at 37° C., 220 RPM. Cells were grown to an optical density (OD600) of ~0.2 measured using a Microplate Spectrophotometer (Molecular Devices Spectra Max Plus). 100 μL of microbial culture containing ~5×10^5 CFU/mL of bacteria in the respective broths were introduced into each well containing 100 μL of peptides and incubated overnight at 37° C. Next, to check the bactericidal effects, 100 μL from each well was transferred and spread on sterile MH2 agar plates. The plates were incubated overnight at 37° C. and the number of colonies forming units (CFU) were calculated the following day. Readings of bacteria grown in media without any treatments were normalized to 100% as media control. For the mixed infection study, three freshly plated bacteria colonies each from PA, SA and ST plates were grown together in cation adjusted MH2 broth and proceeded as described above.

[2] = system: Pseudomonas aeruginosa PA CRM-9027; assay: Broth microdilution, PA CRM-9027 (ear-eye infections); format: cell-based, Pseudomonas aeruginosa (CRM-9027); conditions: Pseudomonas aeruginosa, PACRM9027
Method: (§2) Bacteria strains involved in lung infection in cystic fibrosis patients (PA-BAA 2110) and ear-eye infections (PA-CRM 9027) are treated with exemplary variant peptides, such as E1AM2 and Q19L.
as §1

[3] = system: Pseudomonas aeruginosa (PA); assay: Broth microdilution anti-bacterial assay (CLSI), Pseudomonas aeruginosa; format: cell-based, Pseudomonas aeruginosa (ATCC 14213); conditions: for anti-bacterial activity (in words): PA and SA
Method: (§3) To evaluate their anti-bacterial potency, broth microdilution method as per the CLSI guidelines 1 was used. […] The anti-bacterial potency of the tested agents is quantified using minimum inhibitory concentration (MIC) and minimum bactericidal concentration (MBC). […] To obtain the MBC data, 1X, 2X and 4× MIC of the peptide variants were plated to obtain the number of viable colonies compared to the original inoculum.
(§4) Pseudomonas aeruginosa (ATCC 14213, PA), and methicillin resistant Staphylococcus aureus (BAA1717-USA 300, SA) were obtained from The American Type Culture Collection (ATCC).
as §1

[4] = system: Staphylococcus aureus (SA); assay: Broth microdilution anti-bacterial assay (CLSI), Staphylococcus aureus; format: cell-based
Method: as §3, §4, §1

[5] = system: Pseudomonas aeruginosa (PA); assay: Antimicrobial resistance evolution assay, PA; format: cell-based; conditions: for development of antimicrobial resistance, PA: serial passaging, 28 days, resistance = >4-fold MIC change
Text: The development of antimicrobial resistance is defined by greater than a 4-fold change to their initial minimum inhibitory concentration (MIC) at day 1. Exemplary bacteria strains Pseudomonas aeruginosa (PA) and Staphylococcus aureus (SA) are subjected to continuous daily serial passaging over several days, with treatment of exemplary variant peptides E1AM2 (SEQ ID NO: 2) and Q19L (SEQ ID NO: […]) at subinhibitory concentrations. […] The treatments were discontinued when the MIC increased by more than four-fold from the initial MIC or when MIC reached >100 μM.
Briefly, sequential passaging of PA, and SA cells was done with sub-inhibitory concentrations of antibiotics or E1AM2 up to 4 weeks. The cells grown in those concentrations of antibiotics or peptides were diluted to A600 nm (OD600) of ~0.2 and serially passaged daily with the same concentrations at 37° C. with agitation at 24 h intervals.

[6] = system: Pseudomonas aeruginosa PA BAA-2110; assay: Broth microdilution, PA BAA-2110 (lung infection in cystic fibrosis); format: cell-based, Pseudomonas aeruginosa (BAA-2110); conditions: Pseudomonas aeruginosa, BAA2110
Method: as §2, §1

[7] = PA, overnight, 37° C., ≥99% inhibition
[8] = SA, overnight, 37° C., ≥99% inhibition

Molecule | MIC [3, 7] [µM] | MBC ([3]; PA, ≥99% killing) [µM] | MIC [4, 8] [µM] | MBC ([4]; SA, ≥99% killing) [µM] | also measured
CO/N=C(\C(=O)N[C@@H]1C(=O)N2C(C(=O)[O-])=C(C[N+]3(C)CCCC3)CS[C@H]12)c1csc(N)n1 [Cefepime] |  |  |  |  | MIC [1]: 12.5 µM (≈ 6.01 µg/mL); MBC ([1]; mixed infection): 12.5 µM (≈ 6.01 µg/mL); MBC [2]: 1.56 µM (≈ 0.75 µg/mL); MIC [2]: 1.56 µM (≈ 0.75 µg/mL); MBC ([3]; Pseudomonas aeruginosa): 25 µM (≈ 12 µg/mL); MIC ([3]; Pseudomonas aeruginosa): 12.5 µM (≈ 6.01 µg/mL); MBC ([4]; Staphylococcus aureus): 25 µM (≈ 12 µg/mL); MIC ([4]; Staphylococcus aureus): 12.5 µM (≈ 6.01 µg/mL); development of antimicrobial resistance, PA [5]: developed resistance; MBC [6]: 25 µM (≈ 12 µg/mL); MIC [6]: 12.5 µM (≈ 6.01 µg/mL)
O=C(O)c1cn(C2CC2)c2cc(N3CCNCC3)c(F)cc2c1=O [Ciprofloxacin, 1-cyclopropyl-6-fluoro-4-oxo-7-(piperazin-1-yl)-quinoline-3-carboxylic acid] |  |  |  |  | MBC ([1]; mixed infection): 25 µM (≈ 8.28 µg/mL); development of antimicrobial resistance, PA [5]: developed resistance
CN[C@@H]1[C@@H](O)C(O[C@@H]2[C@@H](O)[C@H](O[C@H]3O[C@H]([C@@H](C)NC)CC[C@H]3N)[C@@H](N)C[C@H]2N)OC[C@]1(C)O (stereo partly drawn) [Gentamicin, (3R,4R,5R)-2-{[(1S,2S,3R,4S,6R)-4,6-diamino-3-{[(2R,3R,6S)-3-amino-6-[(1R)-1-(methylamino)ethyl]oxan-2-yl]oxy}-2-hydroxycyclohexyl]oxy}-5-methyl-4-(methylamino) oxane-3,5-diol] |  |  |  |  | MIC [1]: 3.12 µM (≈ 1.49 µg/mL); MBC ([1]; mixed infection): 6.25 µM and 6.26 µM; MBC [2]: 12.5 µM (≈ 5.97 µg/mL); MIC [2]: 6.25 µM (≈ 2.99 µg/mL); MBC ([3]; Pseudomonas aeruginosa): 6.25 µM (≈ 2.99 µg/mL); MIC ([3]; Pseudomonas aeruginosa): 3.12 µM (≈ 1.49 µg/mL); MBC ([4]; Staphylococcus aureus): 3.25 µM (≈ 1.55 µg/mL); MIC ([4]; Staphylococcus aureus): 1.56 µM (≈ 0.745 µg/mL); AMR prevention / resistance induction ([5]; Table 15: in PA and SA, bacteria not named): induced resistance development in bacteria; development of antimicrobial resistance, PA [5]: developed resistance; MBC [6]: 25 µM (≈ 11.9 µg/mL); MIC [6]: 25 µM (≈ 11.9 µg/mL)
KKLLKKWKKLSKKALKLAQSL-NH2 [V8K] | 3.125 | 3.126 | 12.5 | 12.5 | 
KKLLKKWLKLSKKALKLA-NH2 [V8LQ19L C-3] | >6.25 | >6.25 | >6.25 | >8.26 | anti-bacterial activity (in words) [3]: strong potency
KKLLKKWLKLSKKALKLALS-NH2 [V8LQ19L C-1] | 3.125 | 3.125 | 3.125 | 3.125 | anti-bacterial activity (in words) [3]: strong potency
KKLLKKWVKLKKKALKLAQSL-NH2 [S11K] | 12.5 | 12.5 | 12.5 | 12.5 | 
KKLLKKWVKLLKKALKLAQSL-NH2 [S11L] | 12.5 | 12.5 | 6.25 | 6.25 | 
KKLLKKWVKLSKKALKLAKSL-NH2 [Q19K] | 12.5 | 25 | 12.5 | 25 | 
KKLLKKWVKLSKKALKLAQKL-NH2 [S20K] | 25 | 25 | 25 | 25 | 
KKLLKKWVKLSKKALKLAQLL-NH2 [S20L] | 6.25 | 12.5 | 6.25 | 12.5 | 
KKLLKKWVKLSKKALKLAQSL-NH2 [E1AM2-NH2] | 3.125 | 6.25 | 6.25 | 12.5 | MBC ([1]; mixed infection): 6.25 µM; MIC ([1]; mixed infection): 6.25 µM
KKLLKKWVKLSKKALKLKQSL-NH2 [A18K] | 12.5 | 25 | 12.5 | 12.5 | 
KKLLKKWVKLSKKALKLLQSL-NH2 [A18L] | 6.25 | 6.25 | 3.125 | 3.125 | 
KKLLKKWVKLSKKKLKLAQSL-NH2 [A14K] | 12.5 | 12.5 | 12.5 | 12.5 | 
KKLLKKWVKLSKKLLKLAQSL-NH2 [A14L] | 12.5 | 12.5 | 6.25 | 6.25 | 

Source: patent publication US20260327263A1, “Anti-Bacterial Peptides” (priority 2023, published 2026)
